10 molecules from patent US10344060B2 (priority 2013, dated 2019) can be followed below.

The target in test [1] is hNav1.4 (Homo sapiens, UniProt P35499). As to the kind of experiment: cell-based. The test is classed as cell-based. To be noted: Table 12; ratio of PX tonic IC50 values.
The target of test [2] is hNav1.5 (Homo sapiens, UniProt Q14524). In words: cell-based. To be noted: Table 12; ratio of PX tonic IC50 values.

Each structure is given as a SMILES string.

Sequence of hNav1.5 (Q14524 whole entry): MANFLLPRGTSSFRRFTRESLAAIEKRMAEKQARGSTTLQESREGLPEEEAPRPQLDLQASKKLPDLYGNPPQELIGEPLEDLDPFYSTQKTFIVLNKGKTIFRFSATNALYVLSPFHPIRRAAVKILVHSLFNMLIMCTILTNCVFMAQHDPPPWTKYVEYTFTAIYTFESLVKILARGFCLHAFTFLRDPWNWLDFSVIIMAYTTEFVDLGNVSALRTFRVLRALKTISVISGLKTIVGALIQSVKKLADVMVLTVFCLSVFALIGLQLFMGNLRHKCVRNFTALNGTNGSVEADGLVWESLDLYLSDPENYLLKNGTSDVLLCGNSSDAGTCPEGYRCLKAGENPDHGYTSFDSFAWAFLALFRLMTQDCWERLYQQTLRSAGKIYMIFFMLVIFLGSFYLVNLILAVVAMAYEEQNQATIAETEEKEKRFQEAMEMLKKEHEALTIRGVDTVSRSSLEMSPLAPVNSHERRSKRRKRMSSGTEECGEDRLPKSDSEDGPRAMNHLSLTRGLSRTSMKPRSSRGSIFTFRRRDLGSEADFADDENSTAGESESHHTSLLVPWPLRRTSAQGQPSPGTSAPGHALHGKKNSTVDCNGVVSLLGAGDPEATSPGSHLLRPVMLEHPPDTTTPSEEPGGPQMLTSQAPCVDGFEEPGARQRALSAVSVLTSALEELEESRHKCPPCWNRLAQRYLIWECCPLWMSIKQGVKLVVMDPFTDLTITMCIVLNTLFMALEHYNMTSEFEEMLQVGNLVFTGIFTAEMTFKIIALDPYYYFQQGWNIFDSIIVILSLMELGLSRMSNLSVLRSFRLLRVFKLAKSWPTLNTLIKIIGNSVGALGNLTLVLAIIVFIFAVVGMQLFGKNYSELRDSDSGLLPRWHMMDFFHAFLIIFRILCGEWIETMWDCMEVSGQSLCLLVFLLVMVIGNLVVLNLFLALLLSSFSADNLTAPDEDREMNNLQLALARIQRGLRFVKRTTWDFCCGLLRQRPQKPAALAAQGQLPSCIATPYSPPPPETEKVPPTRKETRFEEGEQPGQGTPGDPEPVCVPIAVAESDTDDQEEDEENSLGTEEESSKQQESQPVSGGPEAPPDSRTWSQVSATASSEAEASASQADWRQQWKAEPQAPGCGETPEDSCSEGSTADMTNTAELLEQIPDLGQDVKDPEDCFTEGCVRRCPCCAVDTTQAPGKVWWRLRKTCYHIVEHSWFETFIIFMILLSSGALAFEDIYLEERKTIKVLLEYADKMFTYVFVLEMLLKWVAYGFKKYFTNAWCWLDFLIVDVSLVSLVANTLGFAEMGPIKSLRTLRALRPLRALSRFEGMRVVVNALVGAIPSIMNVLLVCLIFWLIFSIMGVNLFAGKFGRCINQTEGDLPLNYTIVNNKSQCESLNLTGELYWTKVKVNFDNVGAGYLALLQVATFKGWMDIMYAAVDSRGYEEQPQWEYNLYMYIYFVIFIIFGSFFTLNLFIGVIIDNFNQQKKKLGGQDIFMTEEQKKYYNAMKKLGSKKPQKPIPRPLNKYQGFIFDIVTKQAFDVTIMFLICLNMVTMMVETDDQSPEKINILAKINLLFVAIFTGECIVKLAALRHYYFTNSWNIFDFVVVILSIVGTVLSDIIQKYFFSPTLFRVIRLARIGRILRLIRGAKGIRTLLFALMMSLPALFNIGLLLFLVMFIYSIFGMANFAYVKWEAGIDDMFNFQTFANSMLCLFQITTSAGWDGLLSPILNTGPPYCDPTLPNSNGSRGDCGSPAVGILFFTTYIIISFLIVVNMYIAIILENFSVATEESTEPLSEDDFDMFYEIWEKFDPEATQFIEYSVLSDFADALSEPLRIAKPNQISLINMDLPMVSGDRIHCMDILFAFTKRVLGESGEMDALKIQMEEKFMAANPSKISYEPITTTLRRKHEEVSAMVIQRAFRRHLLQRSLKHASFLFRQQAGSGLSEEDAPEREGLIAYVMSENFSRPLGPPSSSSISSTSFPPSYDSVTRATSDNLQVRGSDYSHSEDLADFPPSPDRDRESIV
Sequence of hNav1.4 (P35499 whole entry): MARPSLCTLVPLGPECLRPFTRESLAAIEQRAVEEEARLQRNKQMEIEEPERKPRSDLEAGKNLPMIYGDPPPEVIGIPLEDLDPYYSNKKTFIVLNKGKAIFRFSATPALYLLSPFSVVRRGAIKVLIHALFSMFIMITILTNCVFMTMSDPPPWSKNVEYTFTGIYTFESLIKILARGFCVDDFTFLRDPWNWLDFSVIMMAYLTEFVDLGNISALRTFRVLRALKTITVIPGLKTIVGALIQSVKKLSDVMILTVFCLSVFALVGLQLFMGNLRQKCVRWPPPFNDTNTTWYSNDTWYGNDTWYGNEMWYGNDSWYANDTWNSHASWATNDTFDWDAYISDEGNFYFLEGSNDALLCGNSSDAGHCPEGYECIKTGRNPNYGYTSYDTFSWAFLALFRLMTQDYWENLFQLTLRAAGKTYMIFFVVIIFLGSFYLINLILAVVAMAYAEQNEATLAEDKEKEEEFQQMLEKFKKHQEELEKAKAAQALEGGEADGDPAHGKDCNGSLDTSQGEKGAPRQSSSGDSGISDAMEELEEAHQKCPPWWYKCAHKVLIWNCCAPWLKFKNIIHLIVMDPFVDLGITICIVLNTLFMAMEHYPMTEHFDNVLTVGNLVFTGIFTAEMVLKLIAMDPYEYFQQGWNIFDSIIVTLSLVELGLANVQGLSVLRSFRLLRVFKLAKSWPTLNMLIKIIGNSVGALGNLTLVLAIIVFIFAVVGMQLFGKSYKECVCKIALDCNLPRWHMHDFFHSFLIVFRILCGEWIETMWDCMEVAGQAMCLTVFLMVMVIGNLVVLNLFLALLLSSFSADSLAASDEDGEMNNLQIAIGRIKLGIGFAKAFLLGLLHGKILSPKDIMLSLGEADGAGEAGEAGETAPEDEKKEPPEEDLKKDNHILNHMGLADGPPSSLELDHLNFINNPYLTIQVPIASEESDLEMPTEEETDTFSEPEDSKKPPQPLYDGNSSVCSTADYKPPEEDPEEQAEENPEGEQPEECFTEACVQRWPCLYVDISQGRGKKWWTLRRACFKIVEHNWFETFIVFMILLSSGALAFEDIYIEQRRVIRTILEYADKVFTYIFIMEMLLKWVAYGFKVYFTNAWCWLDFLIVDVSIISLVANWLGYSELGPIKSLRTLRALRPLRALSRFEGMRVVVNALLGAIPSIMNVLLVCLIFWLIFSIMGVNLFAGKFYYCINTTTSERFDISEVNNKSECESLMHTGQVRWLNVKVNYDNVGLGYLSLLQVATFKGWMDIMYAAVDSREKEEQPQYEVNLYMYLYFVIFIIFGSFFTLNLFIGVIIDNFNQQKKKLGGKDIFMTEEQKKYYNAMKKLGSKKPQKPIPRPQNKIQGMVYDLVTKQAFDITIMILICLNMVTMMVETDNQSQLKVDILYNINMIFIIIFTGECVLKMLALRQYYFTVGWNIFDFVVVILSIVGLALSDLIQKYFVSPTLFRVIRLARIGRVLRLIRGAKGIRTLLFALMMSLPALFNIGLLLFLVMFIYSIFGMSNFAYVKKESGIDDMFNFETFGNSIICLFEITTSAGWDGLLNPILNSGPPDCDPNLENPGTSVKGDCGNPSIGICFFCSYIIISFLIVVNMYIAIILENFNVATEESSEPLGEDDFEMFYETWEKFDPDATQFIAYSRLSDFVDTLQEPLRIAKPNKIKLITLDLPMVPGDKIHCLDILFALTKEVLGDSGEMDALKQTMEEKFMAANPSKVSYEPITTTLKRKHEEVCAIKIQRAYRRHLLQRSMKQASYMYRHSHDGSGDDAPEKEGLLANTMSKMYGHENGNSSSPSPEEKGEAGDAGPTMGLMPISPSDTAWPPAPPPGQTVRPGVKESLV

For `CCCC[C@@H]1NC(=O)[C@H](Cc2c[nH]c3ccccc23)NC(=O)[C@H](CCCCN)NC(=O)[C@H](CCC(N)=O)NC(=O)[C@@H](NC(=O)[C@H](Cc2ccc(O)cc2)NC(=O)[C@@H](N)CCN=[N+]=[N-])CSSC[C@@H]2NC(=O)[C@@H]3CSSC[C@@H](C(=O)N[C@@H](CCCNC(=N)N)C(=O)N[C@@H](CCCCN)C(=O)N[C@H](C(=O)N[C@@H](Cc4c[nH]c5ccccc45)C(N)=O)[C@@H](C)CC)NC(=O)[C@H](Cc4c[nH]c5ccccc45)NC(=O)[C@H](CC(C)C)NC(=O)[C@H](CCCCN)NC(=O)[C@H](CSSC[C@H](NC(=O)[C@H]([C@@H](C)O)NC(=O)[C@H](Cc4c[nH]c5ccccc45)NC1=O)C(=O)N[C@@H](CC(=O)O)C(=O)N[C@@H](CO)C(=O)N[C@@H](CCCCN)C(=O)N[C@@H](CCCNC(=N)N)C(=O)N[C@@H](C)C(=O)N3)NC(=O)[C@H](CCC(=O)O)NC(=O)[C@H](CC(C)C)NC(=O)CNC(=O)[C@H](CCC(=O)O)NC2=O` [compound 308], the Nav1.4/Nav1.7 in test [1] was found to be 1068. The Nav1.5/Nav1.7 in test [2] is on record as 3351.
For `CCCC[C@@H]1NC(=O)[C@H](Cc2c[nH]c3ccccc23)NC(=O)[C@H](CCCCN)NC(=O)[C@H](CCC(N)=O)NC(=O)[C@@H](NC(=O)[C@@H](N)CCN=[N+]=[N-])CSSC[C@@H]2NC(=O)[C@@H]3CSSC[C@@H](C(=O)N[C@@H](CCCNC(=N)N)C(=O)N[C@@H](CCCCN)C(=O)N[C@H](C(=O)N[C@@H](Cc4c[nH]c5ccccc45)C(N)=O)[C@@H](C)CC)NC(=O)[C@H](Cc4c[nH]c5ccccc45)NC(=O)[C@H](CC(C)C)NC(=O)[C@H](CCCCN)NC(=O)[C@H](CSSC[C@H](NC(=O)[C@H]([C@@H](C)O)NC(=O)[C@H](Cc4c[nH]c5ccccc45)NC1=O)C(=O)N[C@@H](CC(=O)O)C(=O)N[C@@H](CO)C(=O)N[C@@H](CCCCN)C(=O)N[C@@H](CCCNC(=N)N)C(=O)N[C@@H](C)C(=O)N3)NC(=O)[C@H](CCC(=O)O)NC(=O)[C@H](CC(C)C)NC(=O)CNC(=O)[C@H](CCC(=O)O)NC2=O` [compound 309] the same measures were 239 and 634.
For `C#CC[C@H](N)C(=O)N[C@@H](Cc1ccc(O)cc1)C(=O)N[C@H]1CSSC[C@@H]2NC(=O)[C@@H]3CSSC[C@@H](C(=O)N[C@@H](CCCNC(=N)N)C(=O)N[C@@H](CCCCN)C(=O)N[C@@H](Cc4ccc(O)cc4)C(=O)N[C@H](C(N)=O)[C@@H](C)CC)NC(=O)[C@H](Cc4c[nH]c5ccccc45)NC(=O)[C@H](CC(C)C)NC(=O)[C@H](CCCCN)NC(=O)[C@H](CSSC[C@H](NC(=O)[C@H]([C@@H](C)O)NC(=O)[C@H](Cc4c[nH]c5ccccc45)NC(=O)[C@H](CCCC)NC(=O)[C@H](Cc4c[nH]c5ccccc45)NC(=O)[C@H](CCCCN)NC(=O)[C@H](CCC(N)=O)NC1=O)C(=O)N[C@@H](CC(=O)O)C(=O)N[C@@H](CO)C(=O)N[C@@H](CCCCN)C(=O)N[C@@H](CCCNC(=N)N)C(=O)N[C@@H](C)C(=O)N3)NC(=O)[C@H](CCC(=O)O)NC(=O)[C@H](CC(C)C)NC(=O)CNC(=O)[C@H](CCC(=O)O)NC2=O` [compound 313] the same measures were 2261 and 10226.
In the same order, the values of `C#CC[C@@H]1NC(=O)[C@H](CC(=O)O)NC(=O)[C@@H]2CSSC[C@@H]3NC(=O)[C@H](CCC(=O)O)NC(=O)[C@H](CC(C)C)NC(=O)CNC(=O)[C@H](CCC(=O)O)NC(=O)[C@H](CSSC[C@H](NC(=O)[C@@H](N)Cc4ccc(O)cc4)C(=O)N[C@@H](CCC(N)=O)C(=O)N[C@@H](CCCCN)C(=O)N[C@@H](Cc4c[nH]c5ccccc45)C(=O)N[C@@H](CCCC)C(=O)N[C@@H](Cc4c[nH]c5ccccc45)C(=O)N[C@@H]([C@@H](C)O)C(=O)N2)NC(=O)[C@H](CSSC[C@@H](C(=O)N[C@@H](CCCNC(=N)N)C(=O)N[C@@H](CCCCN)C(=O)N[C@@H](Cc2ccc(O)cc2)C(=O)N[C@H](C(N)=O)[C@@H](C)CC)NC(=O)[C@H](Cc2c[nH]c4ccccc24)NC(=O)[C@H](CC(C)C)NC(=O)[C@H](CCCCN)NC3=O)NC(=O)[C@H](C)NC(=O)[C@H](CCCNC(=N)N)NC(=O)[C@H](CCCCN)NC1=O` [compound 315] are 643 and 1914.
In the case of `C#CC[C@@H]1NC(=O)[C@H](CCCNC(=N)N)NC(=O)[C@H](CCCCN)NC(=O)[C@H](CO)NC(=O)[C@H](CC(=O)O)NC(=O)[C@@H]2CSSC[C@@H]3NC(=O)[C@H](CCC(=O)O)NC(=O)[C@H](CC(C)C)NC(=O)CNC(=O)[C@H](CCC(=O)O)NC(=O)[C@H](CSSC[C@H](NC(=O)[C@@H](N)Cc4ccc(O)cc4)C(=O)N[C@@H](CCC(N)=O)C(=O)N[C@@H](CCCCN)C(=O)N[C@@H](Cc4c[nH]c5ccccc45)C(=O)N[C@@H](CCCC)C(=O)N[C@@H](Cc4c[nH]c5ccccc45)C(=O)N[C@@H]([C@@H](C)O)C(=O)N2)NC(=O)[C@H](CSSC[C@@H](C(=O)N[C@@H](CCCNC(=N)N)C(=O)N[C@@H](CCCCN)C(=O)N[C@@H](Cc2ccc(O)cc2)C(=O)N[C@H](C(N)=O)[C@@H](C)CC)NC(=O)[C@H](Cc2c[nH]c4ccccc24)NC(=O)[C@H](CC(C)C)NC(=O)[C@H](CCCCN)NC3=O)NC1=O` [compound 316], the Nav1.4/Nav1.7 in test [1] was found to be 402. For the same molecule, in test [2], the Nav1.5/Nav1.7 came to 2099.
For `C#CC[C@@H]1NC(=O)[C@@H]2CSSC[C@H](NC(=O)[C@@H](N)Cc3ccc(O)cc3)C(=O)N[C@@H](CCC(N)=O)C(=O)N[C@@H](CCCCN)C(=O)N[C@@H](Cc3c[nH]c4ccccc34)C(=O)N[C@@H](CCCC)C(=O)N[C@@H](Cc3c[nH]c4ccccc34)C(=O)N[C@@H]([C@@H](C)O)C(=O)N[C@H]3CSSC[C@H](NC(=O)[C@H](CCC(=O)O)NC(=O)[C@H](CC(C)C)NC(=O)CNC1=O)C(=O)N[C@@H](CCCCN)C(=O)N[C@@H](CC(C)C)C(=O)N[C@@H](Cc1c[nH]c4ccccc14)C(=O)N[C@H](C(=O)N[C@@H](CCCNC(=N)N)C(=O)N[C@@H](CCCCN)C(=O)N[C@@H](Cc1ccc(O)cc1)C(=O)N[C@H](C(N)=O)[C@@H](C)CC)CSSC[C@H](NC(=O)[C@H](C)NC(=O)[C@H](CCCNC(=N)N)NC(=O)[C@H](CCCCN)NC(=O)[C@H](CO)NC(=O)[C@H](CC(=O)O)NC3=O)C(=O)N2` [compound 317] the same measures were 161 and 927.
With `C#CC[C@H](N)C(=O)N[C@H]1CSSC[C@@H]2NC(=O)[C@@H]3CSSC[C@@H](C(=O)N[C@@H](CCCNC(=N)N)C(=O)N[C@@H](CCCCN)C(=O)N[C@@H](CCC(=O)O)C(=O)N[C@H](C(N)=O)[C@@H](C)CC)NC(=O)[C@H](Cc4c[nH]c5ccccc45)NC(=O)[C@H](CC(C)C)NC(=O)[C@H](CCCCN)NC(=O)[C@H](CSSC[C@H](NC(=O)[C@H]([C@@H](C)O)NC(=O)[C@H](Cc4c[nH]c5ccccc45)NC(=O)[C@H](CCCC)NC(=O)[C@H](Cc4c[nH]c5ccccc45)NC(=O)[C@H](CCCCN)NC(=O)[C@H](CCC(N)=O)NC1=O)C(=O)N[C@@H](CC(=O)O)C(=O)N[C@@H](CO)C(=O)N[C@@H](CCCCN)C(=O)N[C@@H](CCCNC(=N)N)C(=O)N[C@@H](C)C(=O)N3)NC(=O)[C@H](CCCNC(=N)N)NC(=O)[C@H](CC(C)C)NC(=O)CNC(=O)[C@H](CCC(=O)O)NC2=O` [compound 329], the Nav1.4/Nav1.7 in test [1] is 555. Further, in test [2], the Nav1.5/Nav1.7 stood at 17167.
For `C#CC[C@@H]1NC(=O)[C@H](CC(=O)O)NC(=O)[C@@H]2CSSC[C@@H]3NC(=O)[C@H](CCCNC(=N)N)NC(=O)[C@H](CC(C)C)NC(=O)CNC(=O)[C@H](CCC(=O)O)NC(=O)[C@H](CSSC[C@H](NC(=O)[C@@H](N)Cc4ccc(O)cc4)C(=O)N[C@@H](CCC(N)=O)C(=O)N[C@@H](CCCCN)C(=O)N[C@@H](Cc4c[nH]c5ccccc45)C(=O)N[C@@H](CCCC)C(=O)N[C@@H](Cc4c[nH]c5ccccc45)C(=O)N[C@@H]([C@@H](C)O)C(=O)N2)NC(=O)[C@H](CSSC[C@@H](C(=O)N[C@@H](CCCNC(=N)N)C(=O)N[C@@H](CCCCN)C(=O)N[C@@H](CCC(=O)O)C(=O)N[C@H](C(N)=O)[C@@H](C)CC)NC(=O)[C@H](Cc2c[nH]c4ccccc24)NC(=O)[C@H](CC(C)C)NC(=O)[C@H](CCCCN)NC3=O)NC(=O)[C@H](C)NC(=O)[C@H](CCCNC(=N)N)NC(=O)[C@H](CCCCN)NC1=O` [compound 330] the same measures were 291 and 7841.
In the same order, the values of `C#CC[C@@H]1NC(=O)[C@H](CCCNC(=N)N)NC(=O)[C@H](CCCCN)NC(=O)[C@H](CO)NC(=O)[C@H](CC(=O)O)NC(=O)[C@@H]2CSSC[C@@H]3NC(=O)[C@H](CCCNC(=N)N)NC(=O)[C@H](CC(C)C)NC(=O)CNC(=O)[C@H](CCC(=O)O)NC(=O)[C@H](CSSC[C@H](NC(=O)[C@@H](N)Cc4ccc(O)cc4)C(=O)N[C@@H](CCC(N)=O)C(=O)N[C@@H](CCCCN)C(=O)N[C@@H](Cc4c[nH]c5ccccc45)C(=O)N[C@@H](CCCC)C(=O)N[C@@H](Cc4c[nH]c5ccccc45)C(=O)N[C@@H]([C@@H](C)O)C(=O)N2)NC(=O)[C@H](CSSC[C@@H](C(=O)N[C@@H](CCCNC(=N)N)C(=O)N[C@@H](CCCCN)C(=O)N[C@@H](CCC(=O)O)C(=O)N[C@H](C(N)=O)[C@@H](C)CC)NC(=O)[C@H](Cc2c[nH]c4ccccc24)NC(=O)[C@H](CC(C)C)NC(=O)[C@H](CCCCN)NC3=O)NC1=O` [compound 331] are 213 and 7119.
In the same order, the values of `C#CC[C@@H]1NC(=O)[C@@H]2CSSC[C@H](NC(=O)[C@@H](N)Cc3ccc(O)cc3)C(=O)N[C@@H](CCC(N)=O)C(=O)N[C@@H](CCCCN)C(=O)N[C@@H](Cc3c[nH]c4ccccc34)C(=O)N[C@@H](CCCC)C(=O)N[C@@H](Cc3c[nH]c4ccccc34)C(=O)N[C@@H]([C@@H](C)O)C(=O)N[C@H]3CSSC[C@H](NC(=O)[C@H](CCCNC(=N)N)NC(=O)[C@H](CC(C)C)NC(=O)CNC1=O)C(=O)N[C@@H](CCCCN)C(=O)N[C@@H](CC(C)C)C(=O)N[C@@H](Cc1c[nH]c4ccccc14)C(=O)N[C@H](C(=O)N[C@@H](CCCNC(=N)N)C(=O)N[C@@H](CCCCN)C(=O)N[C@@H](CCC(=O)O)C(=O)N[C@H](C(N)=O)[C@@H](C)CC)CSSC[C@H](NC(=O)[C@H](C)NC(=O)[C@H](CCCNC(=N)N)NC(=O)[C@H](CCCCN)NC(=O)[C@H](CO)NC(=O)[C@H](CC(=O)O)NC3=O)C(=O)N2` [compound 332] are 34 and 849.
